Laboratory results reported in patent publication US20090023700A1, “NEUROPROTECTIVE TREATMENTS” (University of Louisville Research Foundation, priority 2007, published 2009).
Where “and” joins values, the source holds several entries; their conditions need not be identical. Equal entries are not always repeated.

Experiments:
[1] = tested on: Iba1; assay: Iba1 immunostaining (microglial/macrophage activation) after T9 contusion; assay type: in vivo, rat; conditions: 7 d infusion started 4 h after injury
Method: Inflammation is a major contributor to white matter loss after spinal cord injury. Therefore, to find a potential mechanism for the axon- and myelin-protective effects of bpV(phen), its effects on Iba1 immunostaining were measured as a marker for microglial/macrophage activation and inflammation. […] Whereas, PBS-infused rats had clear infiltrates of activated macrophages, those infused with bpV(phen) had predominantly […] microglial cells. […] The extent of white matter loss in the dorsal column at the epicenter correlated to the extent of microglia/macrophage activation at the epicenter (FIG. 8B). The extent of inflammation 1 mm rostral to the injury correlated with the loss of CTB-labeled sensory projections in the gracile nucleus (FIG. 8C) but not with that seen at the epicenter (p=0.3) or caudal to the lesion (p=0.57). […] Conversely, the possibility that bpV(phen) affected inflammation at other times over the 7 d period cannot be excluded.
Anterogradely labeled sensory fibers and terminals were visualized in every third section through both gracile nuclei by DAB-based immunostaining for CTB as described previously (Baker et al. (2007) Exp Neurol 205:82-91). The lumbar sections were stained to ensure that the CTB injections were successful as evidenced by traced afferents and motor neurons. […] The epicenter of maximal injury was determined by the rostrocaudal level with the least amount of spared white matter per transverse section. […]
Quantitative measurements and statistics. The extent of sensory innervation of the gracile nucleus was determined by measuring the CTB-labeled terminal fiber area in every third section as described previously (Baker et al. (2007) Exp Neurol 205:82-91). In short, images of every third section through the right and left gracile nuclei were analyzed using the density slice feature of the Scion Image software. […] Images of EC-stained sections were captured, and the positive areas were measured with Scion Image. […]

[2] = tested on: AP1; conditions: macrophages; cited from earlier work
[3] = tested on: T9 contusive spinal cord injury; assay: Semmes-Weinstein filament test for at-level pain (allodynia); assay type: in vivo, rat; conditions: 100 μM, 28 d L5/6 infusion
Method: (§1) Whether bpV(phen) might have detrimental side effects, such as inducing pain at the level of the injury, was tested. Severe spinal cord injury can induce hypersensitivity and mechanical allodynia (a painful response to a nonpainful tactile skin stimulus) at the level of injury. […] Differences between any of the bpV(phen)- and PBS-treated groups in the overall health status, general behavior, and grooming of the rats were not observed.

[4] = tested on: Ser/Thr phosphatases; conditions: cited from earlier work
[5] = Observation of overall health status, general behavior and grooming; assay type: in vivo, rat; conditions: any of the bpV(phen)- and PBS-treated groups
Method: as §1

[6] = target: T1, cdc25B PTP (Mus musculus, UniProt P30306); conditions: mouse enzyme; cited from earlier work
T1 sequence (P30306 1-576): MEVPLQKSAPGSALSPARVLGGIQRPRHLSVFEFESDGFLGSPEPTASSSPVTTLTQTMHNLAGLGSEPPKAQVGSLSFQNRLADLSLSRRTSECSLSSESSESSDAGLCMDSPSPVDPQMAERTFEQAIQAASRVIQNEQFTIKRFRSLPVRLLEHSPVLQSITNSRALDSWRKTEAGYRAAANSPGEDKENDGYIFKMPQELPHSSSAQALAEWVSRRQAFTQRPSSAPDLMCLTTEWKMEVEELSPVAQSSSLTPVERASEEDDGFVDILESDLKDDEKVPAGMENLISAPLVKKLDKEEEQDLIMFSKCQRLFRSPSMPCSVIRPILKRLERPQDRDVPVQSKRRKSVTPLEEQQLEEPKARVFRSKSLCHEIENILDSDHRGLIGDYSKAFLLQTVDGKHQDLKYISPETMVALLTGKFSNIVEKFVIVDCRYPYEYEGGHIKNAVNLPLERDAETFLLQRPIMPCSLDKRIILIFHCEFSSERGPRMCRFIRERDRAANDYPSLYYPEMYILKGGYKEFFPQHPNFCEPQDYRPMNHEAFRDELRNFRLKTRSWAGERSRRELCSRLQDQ

[7] = tested on: T9 contusive spinal cord injury; assay: Sensory-evoked potentials (SEP) after 0.4 mm T9 contusion; assay type: in vivo, rat; conditions: 0.4 mm contusion
[8] = tested on: T9 contusive spinal cord injury; assay: T9 spinal cord contusion, intrathecal infusion: CTB tracing, white matter (EC) and C3 axon histology; assay type: in vivo, rat; conditions: for CTB-traced fiber area in the gracile nucleus: PBS 43+/−17
[9] = 100 μM, 7 d L5/6 infusion started immediately after 0.3 mm contusion

Structure (SMILES): O.O.O.OO.OO.[K+].[OH-].[V].c1cnc2c(c1)ccc1cccnc12 [bpV(phen), potassium bisperoxo(1,10-phenanthroline)oxovanadate (V)]
- area of Iba1-immunostained structures ([1]; 1 mm caudal to epicenter, p=0.49): no difference
- area of Iba1-immunostained structures ([1]; 1 mm rostral to epicenter, p<0.005): significantly reduced
- area of Iba1-immunostained structures ([1]; at the epicenter, p=0.053): trend of a reduction
- AP1 activation [2]: activates
- induction of pain by chronic infusion [3]: do not induce pain
- Semmes-Weinstein filament size evoking a response (pain at level of injury) ([3]; entire test period): not different from those of the PBS group
- inhibition of Ser/Thr phosphatases [4]: not
- differences versus PBS groups in overall health status, general behavior and grooming [5]: not observed
- inhibition of catalytic activity of purified cdc25B PTP [6]: can inhibit
- SEP amplitude, group average ([7]; 100 μM 7 d lumbar infusion started immediately, one week after contusion, PBS 6+/−6, sham 16): 21+/−7 μV
- rats with an SEP above background noise ([7]; 100 μM 7 d lumbar infusion, one week after contusion, PBS one of five): four of five
- SEP amplitude, group average ([7]; 100 μM 7 d lumbar infusion, one week after termination of infusion, PBS 2+/−2, sham 36): 30+/−18 μV
- rats with a detectable SEP ([7]; 100 μM 7 d lumbar infusion, one week after termination of infusion, PBS one rat): all rats
- CTB-traced fiber area in the gracile nucleus ([8]; 30 μM, 7 d L5/6 infusion started immediately after 0.3 mm contusion): 60+/−5%
- CTB-labeled terminal fiber area in the gracile nucleus ([8]; 30 μM, 7 d intrathecal infusion at T9 started immediately after 0.3 mm contusion, PBS 17+/−7%): 47+/−6 % of sham
- area of spared white matter in the dorsal column at injury epicenter ([8]; 30 μM, 7 d intrathecal infusion at T9 started immediately after 0.3 mm contusion, PBS 28+/−6%): 50+/−8 % of sham
- spared dorsal column white matter at the epicenter ([8]; 100 μM, 7 d L5/6 infusion started 4 h after 0.3 mm contusion, PBS 37+/−6%): 78+/−7%
- gracile nucleus innervation (CTB) ([8]; 100 μM, 7 d L5/6 infusion started 4 h after 0.3 mm contusion, PBS 66+/−11%): 100+/−7%
- total white matter ([8]; 100 μM, 7 d L5/6 infusion started 4 h after 0.3 mm contusion, PBS 70+/−5%): 103+/−4%
- area of spared dorsal column white matter at the injury epicenter [8, 9]: 58+/−12%
- CTB-traced fiber area in the gracile nucleus [8, 9]: 93+/−11%
- total white matter at the epicenter ([8]; 100 μM, 7 d L5/6 infusion started immediately after 0.3 mm contusion, PBS 68+/−6%): 90+/−12%
- CTB-labeled innervation of the gracile nucleus ([8]; 100 μM, 28 d L5/6 infusion started 4 h after contusion, 42 d after injury, 14 d after end of infusion, PBS 68+/−11%): 106+/−9 % of sham
- area of spared white matter in the dorsal column at the T9 injury epicenter ([8]; 100 μM, 28 d L5/6 infusion started 4 h after contusion, 42 d after injury, PBS 48+/−8%): 79+/−7% and 80%
- number of myelinated axons in fasciculus gracilis at C3 ([8]; 100 μM, 28 d L5/6 infusion started 4 h after contusion, 42 d after injury, PBS 63+/−6%): 102+/−5%
- CTB-traced fiber area in the gracile nucleus ([8]; 300 μM, 7 d L5/6 infusion started immediately after 0.3 mm contusion): 80+/−14%
